{
  "source": "patent US20090297637A1",
  "key": {"ERβ [1]": {"molecular_target": "T1, ERβ (Homo sapiens, UniProt Q92731)", "T1 sequence (Q92731 whole entry)": "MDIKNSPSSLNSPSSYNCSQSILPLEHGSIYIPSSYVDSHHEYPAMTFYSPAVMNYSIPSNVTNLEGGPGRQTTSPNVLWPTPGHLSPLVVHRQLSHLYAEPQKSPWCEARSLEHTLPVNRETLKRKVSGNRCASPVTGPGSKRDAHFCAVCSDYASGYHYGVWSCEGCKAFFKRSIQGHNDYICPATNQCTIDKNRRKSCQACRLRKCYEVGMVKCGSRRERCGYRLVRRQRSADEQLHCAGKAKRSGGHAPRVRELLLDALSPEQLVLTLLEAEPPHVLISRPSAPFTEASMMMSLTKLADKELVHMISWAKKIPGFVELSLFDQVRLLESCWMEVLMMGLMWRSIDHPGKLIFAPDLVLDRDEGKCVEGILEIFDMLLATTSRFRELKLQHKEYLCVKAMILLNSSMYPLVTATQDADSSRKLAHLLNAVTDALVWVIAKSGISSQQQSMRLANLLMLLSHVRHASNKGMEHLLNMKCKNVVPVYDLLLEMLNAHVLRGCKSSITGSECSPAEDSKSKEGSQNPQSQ", "conditions": "in the presence of ERβ", "text": "(§1) Plasmid Construction. […] ERβ mutants were created with QuikChange site-directed mutagenesis kits (Stratagene), by using oligonucleotides containing the mutation. The mutants were sequenced with Sequenase kits (Amersham Pharmacia) to verify the presence of the mutation."}, "ERβ [2]": {"molecular_target": "T1, ERβ", "experiment": "Repression of TNF-α activation of TNF-RE tkLuc in U2OS cells", "format": "cell-based", "design": "expressed in transfected cells"}, "TNF-RE tkLuc": {"tested_on": "TNF-RE tkLuc", "experiment": "Activation of TNF-RE tkLuc reporter (Example 2)", "format": "cell-based, human", "conditions": "for effect on the repression induced by E2: TNF-RE tkLuc", "text": "as §1"}, "ERβ [3]": {"molecular_target": "T1, ERβ", "experiment": "ERE-tk-Luc luciferase assay in U2OS osteosarcoma cells", "format": "cell-based", "design": "expressed in transfected cells; host or cells: U2OS (human osteosarcoma)", "conditions": "co-administration with the extract"}, "breast cancer [4]": {"tested_on": "breast cancer", "conditions": "among 5129 women in the treatment group, median follow-up 40 months; cited from earlier work"}, "breast cancer [5]": {"tested_on": "breast cancer", "conditions": "cited from earlier work"}},
  "data": [
    {"compound": "C[C@]12CC[C@@H]3c4ccc(O)cc4CC[C@H]3[C@@H]1CC[C@@H]2O", "note": "[Herb E2, estradiol]", "values": [
      {"measurement": "repression of TNF-α activation of TNF-RE tkLuc", "setting": "ERβ [1]", "value": "60-80%"},
      {"measurement": "repression of TNF-α activation of TNF-RE", "setting": "ERβ [2]", "value": 100, "unit": "%"}
    ]},
    {"compound": "C[C@]12CC[C@@H]3c4ccc(O)cc4C[C@@H](CCCCCCCCC[S+]([O-])CCCC(F)(F)C(F)(F)F)[C@H]3[C@@H]1CC[C@@H]2O", "note": "(some centres unmarked) [ICI 182780]", "values": [
      {"measurement": "activation of TNF-RE tkLuc by antiestrogens", "setting": "TNF-RE tkLuc", "value": 2, "unit": "fold"},
      {"measurement": "effect on the repression induced by E2", "setting": "TNF-RE tkLuc", "value": "abolished the repression induced by E2"},
      {"measurement": "effect of anti-estrogen on extract-stimulated ERE-tk-Luc expression", "setting": "ERβ [3]; FIG. 5", "value": "counteracted"},
      {"measurement": "effect of anti-estrogen on extract-stimulated ERE-tk-Luc expression", "setting": "ERβ [3]; FIG. 5, listed as ICI", "value": "attenuated"}
    ]},
    {"compound": "O=C(c1ccc(OCCN2CCCCC2)cc1)c1c(-c2ccc(O)cc2)sc2cc(O)ccc12", "note": "[raloxifene]", "values": [
      {"measurement": "cases of breast cancer", "setting": "breast cancer [4]", "value": 13, "unit": "cases"},
      {"measurement": "activation of TNF-RE tkLuc by antiestrogens", "setting": "TNF-RE tkLuc", "value": 2, "unit": "fold"},
      {"measurement": "effect on the repression induced by E2", "setting": "TNF-RE tkLuc", "value": "abolished the repression induced by E2"},
      {"measurement": "effect of anti-estrogen on extract-stimulated ERE-tk-Luc expression", "setting": "ERβ [3]; FIG. 5", "value": "counteracted"},
      {"measurement": "effect of anti-estrogen on extract-stimulated ERE-tk-Luc expression", "setting": "ERβ [3]; FIG. 5, listed as Raloxifene", "value": "attenuated"}
    ]},
    {"compound": "CC/C(=C(\\c1ccccc1)c1ccc(OCCN(C)C)cc1)c1ccccc1", "note": "[tamoxifen]", "values": [
      {"measurement": "activation of TNF-RE tkLuc by antiestrogens", "setting": "TNF-RE tkLuc", "value": 2, "unit": "fold"},
      {"measurement": "effect on the repression induced by E2", "setting": "TNF-RE tkLuc", "value": "abolished the repression induced by E2"},
      {"measurement": "reduction of the risk of primary invasive breast cancer", "setting": "breast cancer [5]; BCPT, women at high risk for breast cancer", "value": 49, "unit": "%"},
      {"measurement": "reduction of the risk of recurrences", "setting": "breast cancer [5]; five years of therapy, ER-positive breast cancer", "value": 42, "unit": "%"},
      {"measurement": "reduction of mortality from breast cancer", "setting": "breast cancer [5]; five years of therapy", "value": 22, "unit": "%"}
    ]},
    {"compound": "TNF-α", "values": [
      {"measurement": "activation of 3 copies of the TNF-RE (−125 to −82) upstream of the tk promoter", "setting": "TNF-RE tkLuc; TNF-α as stimulus", "value": "5-10 fold"}
    ]}
  ]
}
